# Test results published in ChEMBL document CHEMBL2331301, “Structural analysis of the active sites of dihydrofolate reductase from two species of Candida uncovers ligand-induced conformational changes shared among species” (Bioorg Med Chem Lett, 2013).
# pIC50: −log10 of the molar value. Activity calls are given as the source filed them. The rule behind the calls is not given here.
# Tests used:
# [1] = Inhibition of Candida glabrata DHFR; parameters: species or system Nakaseomyces glabratus
# Nakaseomyces glabratus [2] = experiment: Binding affinity to Candida glabrata DHFR at 1 mM incubated for 2 hrs by crystallographic analysis in presence of 1 mM NADPH
# Nakaseomyces glabratus [3] = experiment: Antifungal activity against Candida glabrata; type: functional
# Candida albicans = experiment: Antifungal activity against Candida albicans; type: functional
# [4] = target: T1, Dihydrofolate reductase (Candida albicans) (UniProt P22906); experiment: Binding affinity to Candida albicans DHFR at 1 mM incubated for 2 hrs by crystallographic analysis in presence of 1 mM NADPH
# T1 sequence (whole entry): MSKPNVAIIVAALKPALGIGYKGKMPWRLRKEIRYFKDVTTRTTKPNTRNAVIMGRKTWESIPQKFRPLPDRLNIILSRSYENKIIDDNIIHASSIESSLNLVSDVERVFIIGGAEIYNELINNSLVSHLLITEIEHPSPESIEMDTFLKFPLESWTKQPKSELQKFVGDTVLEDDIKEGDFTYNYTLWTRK
# [5] = Selectivity ratio of IC50 for human DHFR to Candida glabrata DHFR
# Dihydrofolate reductase [6] = target: T2, Dihydrofolate reductase (Candida albicans, UniProt P22906); experiment: Inhibition of Candida albicans DHFR
# T2 sequence (P22906 whole entry): T1 sequence (whole entry)
# [7] = Selectivity ratio of IC50 for human DHFR to Candida albicans DHFR
# Dihydrofolate reductase [8] = target: T3, Dihydrofolate reductase (Homo sapiens, UniProt P00374); experiment: Inhibition of human DHFR
# T3 sequence (P00374 whole entry): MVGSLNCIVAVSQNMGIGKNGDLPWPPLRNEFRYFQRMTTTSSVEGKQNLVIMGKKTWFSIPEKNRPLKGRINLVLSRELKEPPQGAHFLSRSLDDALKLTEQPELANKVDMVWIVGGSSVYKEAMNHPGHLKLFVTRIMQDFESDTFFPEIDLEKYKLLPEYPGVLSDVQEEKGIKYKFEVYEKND
Compound,pIC50 [1],Activity (Nakaseomyces glabratus [2]),MIC (Nakaseomyces glabratus [3]) [µg/mL],MIC (Candida albicans) [µg/mL],Activity [4],Ratio IC50 [5],pIC50 (Dihydrofolate reductase [6]),Ratio IC50 [7],pIC50 (Dihydrofolate reductase [8])
COc1cc(-c2ccc(C)cc2)cc(C(C)C#Cc2c(C)nc(N)nc2N)c1 (configuration not stated),9.22,Active,1.5,1.5,Active,,,,
COc1cc(C(C)C#Cc2c(C)nc(N)nc2N)cc(N2CCOCC2)c1 (configuration not stated),7.70,,,,,20,7.68,19,
COc1cc(-c2ccncc2)cc(C(C)C#Cc2c(C)nc(N)nc2N)c1 (configuration not stated),7.01,,,,,15,7.21,25,
CCc1nc(N)nc(N)c1C#CC(C)c1cc(OC)cc(N2CCOCC2)c1 (configuration not stated),7.66,Active,,,,11,7.64,11,6.60
COc1cc(C(C)(C)C#Cc2c(C)nc(N)nc2N)cc(OC)c1OC,7.96,,,,,26,7.48,9,

# The remaining lines, values ahead:
pIC50 [1],Activity (Nakaseomyces glabratus [2]),MIC (Nakaseomyces glabratus [3]) [µg/mL],MIC (Candida albicans) [µg/mL],Activity [4],Ratio IC50 [5],pIC50 (Dihydrofolate reductase [6]),Ratio IC50 [7],pIC50 (Dihydrofolate reductase [8]),Compound
7.80,,,,,3.8,7.15,0.84,7.22,CCc1nc(N)nc(N)c1C#CCc1cc(OC)cc(-c2cccc3cnccc23)c1
7.74,,,,,14,7.64,11,6.59,CCc1nc(N)nc(N)c1C#CC(C)c1cc(OC)cc(-c2ccc3c(c2)OCCO3)c1 (configuration not stated)
7.96,,,,,4.1,7.77,2.6,7.35,CCc1nc(N)nc(N)c1C#CC(C)c1cc(OC)cc(-c2cccc3cnccc23)c1 (configuration not stated)
8.09,,,,,,,,,CCc1nc(N)nc(N)c1C#CCc1cc(OC)ccc1OC
7.72,Active,,,Active,7.4,7.11,1.8,6.85,CCc1nc(N)nc(N)c1C#CCc1cc(OC)cc(-c2ccc3c(c2)OCCO3)c1
7.05,Active,,,Active,15,7.22,22,,CCc1nc(N)nc(N)c1C#CC(C)c1cc(OC)cc(-c2ccncc2)c1 (configuration not stated)
